Measured values from BindingDB's records for patent US10123984 (Theravance Biopharma R&D Ip, 2018).

Biological target: Neprilysin (Homo sapiens, UniProt P08473)
Experiment: Enzyme NEP Inhibition Assay

| Compound | Ki | IC50 |
| --- | --- | --- |
| C[C@H](C[C@@H](Cc1ccc(-c2ccccc2)cc1)NC(=O)CCCCC(=O)O)C(=O)O [US10123984, Compound 21f] |  | 324 nM |
| CC(C)COC(=O)C(=O)N[C@H](Cc1ccc(-c2cccc(Cl)c2)cc1)C[C@@H](O)C(=O)O [US10123984, Example 2H] | < 1 nM |  |
| C[C@H](CC(Cc1ccc(-c2ccccc2)cc1)NC(=O)CC(=O)O)C(=O)O (some centres undefined) [US10123984, Compound 21g] |  | 92 nM |
| O=C(O)C(=O)N[C@H](Cc1ccc(-c2cccc(Cl)c2)cc1)C[C@@H](O)C(=O)O [US10123984, Example 2A] | < 1 nM |  |
| O=C(N[C@H](Cc1ccc(-c2cccc(Cl)c2)cc1)C[C@@H](O)C(=O)O)C(=O)OCCOc1ccccc1 [US10123984, Example 2U] | < 1 nM |  |
| C[C@H](C[C@@H](Cc1ccc(-c2ccccc2)cc1)NC(=O)CCCC(=O)O)C(=O)O [US10123984, Compound 21e] |  | 90 nM |

Further lines, results first:

| Ki | IC50 | Compound |
| --- | --- | --- |
| < 1 nM |  | CCOCCCOC(=O)C(=O)N[C@H](Cc1ccc(-c2cccc(Cl)c2)cc1)C[C@@H](O)C(=O)O [US10123984, Example 2V] |
| < 1 nM |  | CCOC(=O)C(=O)N[C@H](Cc1ccc(-c2cccc(Cl)c2)cc1)C[C@@H](O)C(=O)O [US10123984, Example 2F] |
| < 1 nM |  | COCCOC(=O)C(=O)N[C@H](Cc1ccc(-c2cccc(Cl)c2)cc1)C[C@@H](O)C(=O)O [US10123984, Example 2T] |
